Reference: patent publication US5369096A, “Glycolipid derivatives” (The Nisshin Oil Mills, Ltd., priority 1992, dated 1994)

Experiments:
Assay type in all cases: cell-based
[1] = test system: Colo 201 cancer cells adhering to vascular endothelial cells of the normal human umbilical cord; experiment: inhibition of adhesion of Colo 201 cancer cells to rhIL1β-stimulated vascular endothelial cells, liposome dispersion; settings: 11.8 μM equivalent; for Amount of Colo 201 cells adhered (fluorescence intensity): rhIL1β 200 U/ml, 485 nm
Experimental: A solution of 200 μg of phosphatidylcholine, 100 μg of cholesterol, 7.5 μg of dicetyl phosphate and 50 μg of a compound of the invention in a mixture of chloroform/methanol=2/1 (ca. 1 ml) was evaporated under reduced pressure to dryness followed by addition of 0.25 ml of a phosphate-buffered saline solution. The mixture was ultrasonicated (an output of 90 watts) for 5 min. and stirred (a vortex mixer) for 5 min. to form a liposome dispersion.
(§1) % Inhibition of adhesion=100-[(fluorescence intensity for rhIL1β-treated group+compound-free or a compound-containing liposome dispersion-treated group)-(fluorescence intensity for rhIL1β-untreated group)/(fluorescence intensity for rhIL1β-treated group-fluorescence intensity for rhIL1β-untreatedgroup)]×100
Vascular endothelial cells of the normal human umbilical cord grown to confluence were stimulated in 24-well plates with 200 U/ml of rhIL1β at 37° C. for 4 hours. After removal of the supernatant by suction liposome dispersions each prepared from 2→3 sialyl Le^x or a compound of the invention in an amount of 11.8 μM equivalent were added except for the rhIL1β-untreated and treated groups. The mixtures were then allowed to react at room temperature for 30 min. Subsequently, colon carcinoma cell line Colo 201 with 2',7'-bis-(carboxyethyl)-5,6-carboxyfluorescene acetoxymethyl ester fluorescent dye enclosed was added at a level of 1×10^6 cells per well followed by centrifugal operation at 100 rpm for 20 min. Each well was washed three times followed by addition of 0.5 ml of 0.5% Triton X-100 and stirring. The contents were divided into 100 μl portions in 96-well plates and measurement was made on a Baxter fluorometer at 485 nm.
4: rhIL1β-treated group+2→3 sialyl Le^x -containing liposome dispersion-treated group
5: rhIL1β-treated group+compound 5E-containing liposome dispersion-treated group (OEG)*
6: rhIL1β-treated group+compound 5A-containing liposome dispersion-treated group (2EG)
7: rhIL1β-treated group+compound 5B-containing liposome dispersion-treated group (3EG)
8: rhIL1β-treated group+compound 5C-containing liposome dispersion-treated group (4EG)
9: rhIL1β-treated group+compound 5D-containing liposome dispersion-treated group (5EG)
* OEG represents a control compound containing no CH2 CH2 O unit. The same shall apply hereinafter.
Amount adhered and % inhibition of adhesion of Colo 201 cancer cells as measured from fluorescence intensity are shown in Table 2 below.

[2] = test system: HL-60 cancer cells adhering to vascular endothelial cells of the normal human umbilical cord; experiment: inhibition of adhesion of HL-60 cancer cells to rhIL1β-stimulated vascular endothelial cells, oily emulsion; settings: 20 μg/ml equivalent; for Amount of HL-60 cancer cells adhered (fluorescence intensity): rhIL1β 200 U/ml, 485 nm/535 nm
Experimental: (§2) A mixed solution of 6 mg of egg yolk lecithin (manufactured by Nacalaitesque Inc.), 30 μl of soybean oil J. P. (manufactured by Yoshida Seiyaku), 470 μl of distilled water for injection (manufacturedby Otsuka Seiyaku) and 125 μg of a compound of the invention was ultrasonicated (an output of 90 watts) for 10 min. to prepare an oily emulsion. The oily emulsion was further passed through a polycarbonate membrane filter having 0.2 μm average pore diameter (manufactured by Millipore) to provide an average particle size of 0.2 μm.
Vascular endothelial cells of the normal human umbilical cord grown to confluence were stimulated in 24-well plates with 200 U/ml of rhIL1β at 37° C. for 4 hours. After removal of the supernatant by suction, oily emulsions each prepared from a compound of the invention in an amount of 20 μg/ml equivalent were added except for the rhIL1β-untreated group (sample 1) and the treated groups (samples 2 and 3). The mixtures were then allowed to react at room temperature for 30 min. Subsequently, promyelocytic leukemia cell line HL-60 with 2',7'-bis(carboxyethyl)-5,6-carboxyfluorescene acetoxymethyl ester fluorescent dye enclosed was added at a level of 1×10^6 cells per well followed by centrifugal operation at 100 rpm for 20 min. Each well was washed three times followed by addition of 0.5 ml of 0.5% Triton X-100 and stirring. The contents were divided into 100 μl portions in 96-well plates and measurement was made on a Baxter fluorometer at 485 nm/535 nm.
4: rhIL1β-treated group+2→3 sialyl Lewis X (natural type)-containing oily emulsion dispersion-treated group
5: rhlL1β-treated group+compound 5E-containing oily emulsion dispersion-treated group (OEG)
(§3) 6: rhIL1β-treated group+compound 5A-containing oily emulsion dispersion-treated group (2EG)
(§4) 7: rhIL1β-treated group+compound 5B-containing oily emulsion dispersion-treated group (3EG)
(§5) 8: rhIL1β-treated group+compound 5C-containing oily emulsion dispersion-treated group (4EG)
(§6) 9: rhIL1β-treated group+compound 5D-containing oily emulsion dispersion-treated group (5EG)
as §1, with “inhibition” for “Inhibition”, “oily emulsion” for “liposome”

[3] = test system: human normal lymphocytes adhering to vascular endothelial cells of the normal human umbilical cord; experiment: inhibition of adhesion of human normal lymphocytes to rhIL1β-stimulated vascular endothelial cells, oily emulsion; settings: 20 μg/ml equivalent; for Amount adhered (fluorescence intensity): rhIL1β 200 U/ml, 485 nm/535 nm
Experimental: as §2
Vascular endothelial cells of the normal human umbilical cord grown to confluence were stimulated in 24-well plates with 200 U/ml of rhIL1ββat 37° C. for 4 hours. After removal of the supernatant by suction, oily emulsions each prepared from a compound of the invention in an amount of 20 μg/ml equivalent were added except for the rhIL1β-untreated (Sample 1) and treated groups (Samples 2 and 3). The mixtures were then allowed to react at room temperature for 30 min. Subsequently, human normal lymphocytes with 2',7'-bis(carboxyethyl)-5,6-carboxyfluorescence acetoxymethyl ester fluorescent dye enclosed was added at a level of 2×10^6 cells per well followed by centrifugal operation at 100 rpm for 20 min. Each well was washed three times followed by addition of 0.5 ml of 0.5% Triton X-100 and stirring. The contents were divided into 100 μl portions in 96-well plates and measurement was made on a Baxter fluorometer at 485 nm/535 nm.
4: rhIL1β-treated group+2→3 sialyl Lewis X-containing oily emulsion dispersion-treated group
5: rhIL1β-treated group+compound 5E-containing oily emulsion dispersion-treated group (OEG)
as §3, §4, §5, §6
Amount adhered and percent inhibition of adhesion of human normal lymphocytes as measured from fluorescence intensity are shown in Table 5 below.

Compound	Amount of Colo 201 cells adhered (fluorescence intensity) [1]	% Inhibition of adhesion ([1]; Colo 201 cells)	Amount of HL-60 cancer cells adhered (fluorescence intensity) [2]	% Inhibition of adhesion ([2]; HL-60 cells)	% Inhibition of adhesion [3]	Amount adhered (fluorescence intensity) [3]
CCCCCCCCCCCCCCC(CCCCCCCCCCCCCC)C(=O)Nc1ccc(CO[C@@H]2O[C@H](CO)[C@@H](O[C@@H]3O[C@H](CO)[C@H](O)[C@H](O[C@]4(C(=O)O)C[C@H](O)[C@@H](NC(C)=O)[C@H]([C@H](O)[C@H](O)CO)O4)[C@H]3O)[C@H](O[C@@H]3O[C@@H](C)[C@@H](O)[C@@H](O)[C@@H]3O)[C@H]2O)cc1 [Compound 5E, para-(2-tetradecylhexadecanoyl)-aminobenzyl-O-(5-acetamido-3,5-dideoxy-D-glycero-α-D-galacto-2-nonulopyranosylonic acid)-(2→3)-O-β-galactopyranosyl-(1→4)-[O-α-L-fucopyranosyl-(1→3)-β-D-glucopyranoside], reference compound]	595253	9.68%	24307	35.6%	46.6%	14781
CCCCCCCCCCCCC/C=C/[C@@H](O)[C@H](CO[C@@H]1O[C@H](CO)[C@@H](O[C@@H]2O[C@H](CO)[C@H](O)[C@H](O[C@@H]3O[C@H](CO)[C@@H](O[C@@H]4O[C@H](CO)[C@H](O)[C@H](O[C@]5(C(=O)O)C[C@H](O)[C@@H](NC(C)=O)[C@H]([C@H](O)[C@H](O)CO)O5)[C@H]4O)[C@H](O[C@@H]4O[C@@H](C)[C@@H](O)[C@@H](O)[C@@H]4O)[C@H]3NC(C)=O)[C@H]2O)[C@H](O)[C@H]1O)NC(=O)CCCCCCCCCCCCCCCCC [2→3 sialyl Le^x, reference compound]	448512		16869			9320
